Test results reported in publication PMC7044277 (Nature Communications, 2020).
Several values for one entry are separate records, joined by “and”; a condition that tells them apart may be missing. Equal entries are not always repeated.

Experiments:
Format in all cases: cell-based
320 non-olfactory GPCRs [1] = target: T1, 320 non-olfactory GPCRs (Homo sapiens, UniProt O00254)
T1 construct: expressed in transfected cells; host or cells: HTLA cells

320 non-olfactory GPCRs [2] = target: T2, 320 non-olfactory GPCRs (Homo sapiens, UniProt O00421)
T2 construct: expressed in transfected cells; host or cells: HTLA cells
T2 sequence (O00421 whole entry): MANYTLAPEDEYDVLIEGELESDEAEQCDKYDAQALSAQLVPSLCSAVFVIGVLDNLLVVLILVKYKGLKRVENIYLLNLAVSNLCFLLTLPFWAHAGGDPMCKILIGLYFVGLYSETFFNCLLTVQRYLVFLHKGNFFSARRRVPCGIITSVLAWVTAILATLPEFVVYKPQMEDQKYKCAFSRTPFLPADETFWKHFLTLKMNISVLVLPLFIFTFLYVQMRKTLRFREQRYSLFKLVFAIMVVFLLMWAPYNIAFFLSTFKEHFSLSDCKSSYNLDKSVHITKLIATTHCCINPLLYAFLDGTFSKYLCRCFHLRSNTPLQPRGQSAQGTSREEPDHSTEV

320 non-olfactory GPCRs [3] = target: 320 non-olfactory GPCRs (Homo sapiens, UniProt P30411)
320 non-olfactory GPCRs (Homo sapiens, UniProt P30411), sequence (P30411 whole entry): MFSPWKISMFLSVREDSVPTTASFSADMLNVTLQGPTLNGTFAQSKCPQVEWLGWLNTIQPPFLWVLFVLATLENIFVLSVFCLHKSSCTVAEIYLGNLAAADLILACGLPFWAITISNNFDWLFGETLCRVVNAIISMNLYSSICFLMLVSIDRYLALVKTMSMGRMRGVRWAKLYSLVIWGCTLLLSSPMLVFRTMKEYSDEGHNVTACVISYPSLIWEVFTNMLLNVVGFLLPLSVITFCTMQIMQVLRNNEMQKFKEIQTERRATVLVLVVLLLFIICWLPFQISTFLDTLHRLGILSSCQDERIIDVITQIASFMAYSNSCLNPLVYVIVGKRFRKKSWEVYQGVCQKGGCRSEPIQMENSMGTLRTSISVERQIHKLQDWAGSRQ

320 non-olfactory GPCRs [4] = target: T3, 320 non-olfactory GPCRs (Homo sapiens, UniProt P32249)
T3 construct: expressed in transfected cells; host or cells: HTLA cells
T3 sequence (P32249 whole entry): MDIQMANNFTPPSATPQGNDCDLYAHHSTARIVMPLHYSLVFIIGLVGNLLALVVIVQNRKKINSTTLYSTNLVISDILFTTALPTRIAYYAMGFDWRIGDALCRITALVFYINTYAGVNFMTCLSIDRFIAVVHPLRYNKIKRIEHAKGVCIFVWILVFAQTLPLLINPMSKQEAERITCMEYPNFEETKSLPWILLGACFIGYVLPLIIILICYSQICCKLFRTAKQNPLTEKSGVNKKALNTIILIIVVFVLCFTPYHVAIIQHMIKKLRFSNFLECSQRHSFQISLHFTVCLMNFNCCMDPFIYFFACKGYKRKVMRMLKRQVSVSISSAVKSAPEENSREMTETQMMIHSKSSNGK
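Note: compound tested at 1 µM final concentration.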

T1 sequence (O00254 22-374): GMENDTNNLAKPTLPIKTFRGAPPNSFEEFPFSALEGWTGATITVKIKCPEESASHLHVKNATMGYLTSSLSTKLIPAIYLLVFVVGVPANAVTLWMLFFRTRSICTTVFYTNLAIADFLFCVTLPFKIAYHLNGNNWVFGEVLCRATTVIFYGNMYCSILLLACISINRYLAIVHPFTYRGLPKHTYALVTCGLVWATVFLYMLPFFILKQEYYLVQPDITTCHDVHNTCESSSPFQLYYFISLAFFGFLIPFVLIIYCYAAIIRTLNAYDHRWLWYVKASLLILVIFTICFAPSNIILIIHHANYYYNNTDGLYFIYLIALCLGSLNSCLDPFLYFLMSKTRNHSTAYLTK

CCOc1cccc2cc(C(C)NCC3(O)CCCCC3)oc12 (stereo not shown) [O4LE6]
Fold of Basal (320 non-olfactory GPCRs [1]): 0.8171 and 1.363 and 1.064 and 0.8535
Fold of Basal (320 non-olfactory GPCRs [2]): 1.0982 and 0.8519 and 0.828 and 1.211
Fold of Basal (320 non-olfactory GPCRs [3]): 1.112 and 0.7321 and 0.9055 and 1.0914
Fold of Basal (320 non-olfactory GPCRs [4]): 2.191 and 1.736 and 1.097 and 1.536
